# Results taken from patent US20240148747A1, “SMALL MOLECULE ACTIVATORS OF YAP TRANSCRIPTIONAL ACTIVITY FOR REGENERATIVE ORGAN REPAIR” (THE SCRIPPS RESEARCH INSTITUTE, priority 2021, published 2024).
# Columns and labels:
# YAP = assay: TEAD-LUC activation assay (293A-TEAD-LUC reporter); assay type: cell-based; conditions: Homo sapiens, Table 3; read-out: TEAD-LUC activation assay EC50
# [1] = Cytotoxicity in the TEAD-LUC activation assay; conditions: human
EC50 (YAP) [µM],SMILES,IC50 [1] [µM]
> 20,O=C(NCCCn1cccc1)c1cc(-c2cccc(Cl)c2)on1 [Compound 1],> 20
1.13,O=C(NCCCn1cccc1)c1cc(-c2ccc(F)cc2)on1 [Compound 2],> 20
> 20,COc1ccc(-c2cc(C(=O)NCCCn3cccc3)no2)cc1 [Compound 3],> 20
1.41,O=C(NCCCn1ccc2ccccc21)c1cc(-c2ccccc2)on1 [Compound 4],> 20
> 20,O=C(NCCCN1CCCC1)c1cc(-c2ccccc2)on1 [Compound 5],> 20
0.91,O=C(NCCCNc1ccccc1)c1cc(-c2ccccc2)on1 [Compound 6],> 20
1.13,O=C(NCCCn1nccn1)c1cc(-c2ccccc2)on1 [Compound 7],> 20
> 20,O=C(NCCCn1cccc1)c1cc(-c2cccc(F)c2)on1 [Compound 9],> 20
> 20,O=C(NCCCn1cccc1)c1cc(-c2ccccc2)[nH]n1 [Compound 10],> 20
> 20,Cn1nc(C(=O)NCCCn2cccc2)cc1-c1ccccc1 [Compound 11],> 20
1.88,O=C(NCCCCn1cccc1)c1cc(-c2ccccc2)on1 [Compound 12],> 20
1.93,O=C(NCCCn1ccnn1)c1cc(-c2ccccc2)on1 [Compound 14],> 20
1.87,O=C(NCCn1cccc1)c1cc(-c2ccccc2)on1 [Compound 15],> 20
1.27,O=C(NCCCn1cccc1)c1cc(-c2ccccc2F)on1 [Compound 16],> 20
> 20,Cc1c(C(=O)NCCCn2cccc2)noc1-c1ccccc1 [Compound 18],> 20
5.16,Cc1ccn(CCCNC(=O)c2cc(-c3ccccc3)on2)c1 [Compound 19],> 20

EC50 (YAP) [µM],SMILES,IC50 [1] [µM]
> 20,N#Cc1ccc(-c2cc(C(=O)NCCCn3cccc3)no2)cc1 [Compound 20],> 20
> 20,O=C(NCCCn1cccc1)c1cc(-c2cccnc2)on1 [Compound 21],> 20
> 20,O=C(NCCCn1cccc1)c1noc(-c2ccccc2)n1 [Compound 22],> 20
2.76,CN(CCCNC(=O)c1cc(-c2ccccc2)on1)S(C)(=O)=O [Compound 24],> 20
> 20,O=C(NCCCn1ccc(-c2ccccc2)c1)c1cc(-c2ccccc2)on1 [Compound 26],> 20
3.8,O=C(NCCCc1ncco1)c1cc(-c2ccccc2)on1 [Compound 27],> 20
1.67,O=C(NCCCc1ncno1)c1cc(-c2ccccc2)on1 [Compound 28],> 20
> 20,O=C(NCCCn1cccc1)c1cc(-c2ccncc2)on1 [Compound 29],> 20
> 20,O=C(NCCCn1cccc1)c1noc2c1OCc1ccccc1-2 [Compound 31],> 20
> 20,NC(=O)c1ccc(-c2cc(C(=O)NCCCc3nccs3)no2)cc1 [Compound 32],> 20
> 20,O=C(NCCCc1nccs1)c1noc(-c2ccccc2)c1-c1ccccc1 [Compound 33],> 24
> 20,O=C(NCCCc1nccs1)c1noc2ccccc12 [Compound 34],> 20
> 20,O=C(NCCCc1nccs1)c1cn2ccccc2n1 [Compound 35],> 20
4.36,CC(=O)N1CCN(CCCNC(=O)c2cc(-c3ccccc3)on2)CC1 [Compound 36],> 20
15,O=C(Nc1cccc(-c2nccs2)c1)c1cc(-c2ccccc2)on1 [Compound 37],> 20
3.34,O=C(NCCCN1CCN(C(=O)c2ccccc2)CC1)c1cc(-c2ccccc2)on1 [Compound 38],> 20
